Blank lines part the entries; values can stand above or below the compound they belong to.
Assays:
[1] = target: T1, Poly [ADP-ribose] polymerase 1 (Homo sapiens, UniProt P09874); assay: Inhibition of PARP1 (unknown origin)
BT-549 = assay: Cytotoxicity against human BT-549 cells assessed as cell growth inhibition; type: functional, cell-based
MDA-MB-231 [2] = assay: Cytotoxicity against human MDA-MB-231 cells assessed as cell growth inhibition; type: functional, cell-based
MDA-MB-468 = assay: Cytotoxicity against human MDA-MB-468 cells assessed as cell growth inhibition; type: functional, cell-based
[3] = target: Cyclin-dependent kinase 6 (Homo sapiens, UniProt Q00534)
Description: Inhibition of CDK6 (unknown origin))

MDA-MB-231 [4] = assay: Cytotoxicity against human MDA-MB-231 cells; type: functional, cell-based
SUM-159-PT = assay: Cytotoxicity against human SUM159 cells; type: functional, cell-based
OVCAR-5 = assay: Antiproliferative activity against human OVCAR-5 cells assessed as growth inhibition incubated for 48 hrs by SRB assay; type: functional, cell-based; settings: OVCAR-5, 48 h
SK-OV-3 [5] = assay: Cytotoxicity against human SK-OV-3 cells assessed as inhibition of cell growth incubated for 72 hrs by MTT assay; type: functional, cell-based; settings: SK-OV-3, 72 h
[6] = target: T2, Cyclin-dependent kinase 4 (Homo sapiens, UniProt P11802); assay: Inhibition of CDK4 (unknown origin) at 1 uM relative to control
[7] = target: T3, Cyclin-dependent kinase 2 (Homo sapiens, UniProt P24941)
[8] = target: T2, Cyclin-dependent kinase 4; assay: Inhibition of human CDK4 extracted from baculovirus infected Sf9 insect cells incubated for 1 hrs in presence of ATP by liquid scintillation counter analysis
[9] = target: Receptor-type tyrosine-protein kinase FLT3 (Homo sapiens, UniProt P36888); assay: Inhibition human recombinant FLT3
[10] = target: Cyclin-dependent kinase 7 (Homo sapiens, UniProt P50613); assay: Inhibition of CDK7 (unknown origin)
[11] = target: T4, Epidermal growth factor receptor (Homo sapiens, UniProt P00533)
Histone deacetylase 1 = Histone deacetylase 1 (Homo sapiens, UniProt Q13547)
Description: Inhibition of HDAC1 (unknown origin)

[12] = target: T5, Cyclin-dependent kinase 9 (Homo sapiens, UniProt P50750); assay: Inhibition of CDK9 (unknown origin)
Aurora kinase A = Aurora kinase A (Homo sapiens, UniProt O14965); assay: Inhibition of Aurora A (unknown origin)
[13] = target: Cyclin-dependent kinase 5 (Homo sapiens, UniProt Q00535)
Description: Inhibition of CDK5 (unknown origin)

[14] = target: Cyclin-dependent kinase 1/cyclin B1 (Homo sapiens) (UniProt P06493+P14635); assay: Inhibition of CDK1/cyclin B1 (unknown origin) at 10 nM relative to control; type: protein-complex assay
[15] = target: Receptor tyrosine-protein kinase erbB-2 (Homo sapiens) (UniProt P04626); assay: Inhibition of HER2 (unknown origin) at 10 uM in presence of ATP relative to control
HeLa = assay: Antiproliferative activity against human HeLa cells; type: functional, cell-based
[16] = Antiproliferative activity against human PC-3 cells; type: functional, cell-based
SK-OV-3 [17] = assay: Antiproliferative activity against human SK-OV-3 cells; type: functional, cell-based
A549 [18] = assay: Antiproliferative activity against human A549 cells; type: functional, cell-based
A549 [19] = assay: Antiproliferative activity against human A549 cells assessed as reduction in cell viability incubated for 24 hrs by MTT assay; type: functional, cell-based; settings: A549, 24 h
MCF7 [20] = assay: Antiproliferative activity against human MCF7 cells assessed as reduction in cell viability incubated for 24 hrs by MTT assay; type: functional, cell-based; settings: MCF7, 24 h
PANC-1 = assay: Antiproliferative activity against human PANC-1 cells assessed as reduction in cell viability incubated for 24 hrs by MTT assay; type: functional, cell-based; settings: PANC-1, 24 h
HT-29 = assay: Antiproliferative activity against human HT-29 cells assessed as reduction in cell viability incubated for 24 hrs by MTT assay; type: functional, cell-based; settings: HT-29, 24 h
[21] = target: T5, Cyclin-dependent kinase 9
Description: Inhibition of CDK9 (unknown origin) by ADP-Glo kinase assay

MCF7 [22] = assay: Cytotoxicity against human MCF7 cells assessed as reduction in cell growth incubated fro 72 hrs by MTT assay; type: functional, cell-based; settings: MCF7, 72 h
A549 [23] = assay: Cytotoxicity against human A549 cells assessed as reduction in cell growth incubated fro 72 hrs by MTT assay; type: functional, cell-based; settings: A549, 72 h
HCT-116 = assay: Cytotoxicity against human HCT-116 cells assessed as reduction in cell growth incubated fro 72 hrs by MTT assay; type: functional, cell-based; settings: HCT-116, 72 h
HepG2 = assay: Cytotoxicity against human HepG2 cells assessed as reduction in cell growth incubated fro 72 hrs by MTT assay; type: functional, cell-based; settings: HepG2, 72 h
[24] = target: T3, Cyclin-dependent kinase 2; assay: Inhibition of CDK2 (unknown origin) by luminescence kinase assay
[25] = target: T4, Epidermal growth factor receptor; assay: Inhibition of EGFR (unknown origin) using Poly (Glu, Tyr) as substrate incubated for 60 mins in presence of ATP by Kinase-Glo Plus luminescence kinase assay relative to control
[26] = target: T1, Poly [ADP-ribose] polymerase 1; assay: Inhibition of PARP-1 (unknown origin) incubated for 60 mins by chemiluminescent assay
[27] = target: T3, Cyclin-dependent kinase 2; remark: listed apart in the source
Description: Inhibition of CDK2 (unknown origin) by mobility shift assay

[28] = target: Extracellular calcium-sensing receptor (Homo sapiens, UniProt P41180); assay: Inhibition of CASR (unknown origin)
MCF7 [29] = assay: Growth inhibition of human MCF-7 cells incubated for 72 hrs by SRB assay; type: functional
K562 = assay: Growth inhibition of human K562 cells incubated for 72 hrs by SRB assay; type: functional
MCF7 [30] = assay: Cytotoxicity against human MCF7 cells assessed as reduction in cell growth incubated for 72 hrs by MTT assay; type: functional, cell-based; settings: MCF7, 72 h
MDA-MB-231 [31] = assay: Cytotoxicity against human MDA-MB-231 cells assessed as reduction in cell growth incubated for 72 hrs by MTT assay; type: functional, cell-based; settings: MDA-MB-231, 72 h
[32] = target: Amine oxidase [flavin-containing] A (Homo sapiens, UniProt P21397); assay: Inhibition of MAO-A (unknown origin) measured by MAO-GloTM method
Histone deacetylase 2 = Histone deacetylase 2 (Homo sapiens, UniProt Q92769)
Description: Inhibition of HDAC2 (unknown origin)

T4 sequence (P00533 whole entry): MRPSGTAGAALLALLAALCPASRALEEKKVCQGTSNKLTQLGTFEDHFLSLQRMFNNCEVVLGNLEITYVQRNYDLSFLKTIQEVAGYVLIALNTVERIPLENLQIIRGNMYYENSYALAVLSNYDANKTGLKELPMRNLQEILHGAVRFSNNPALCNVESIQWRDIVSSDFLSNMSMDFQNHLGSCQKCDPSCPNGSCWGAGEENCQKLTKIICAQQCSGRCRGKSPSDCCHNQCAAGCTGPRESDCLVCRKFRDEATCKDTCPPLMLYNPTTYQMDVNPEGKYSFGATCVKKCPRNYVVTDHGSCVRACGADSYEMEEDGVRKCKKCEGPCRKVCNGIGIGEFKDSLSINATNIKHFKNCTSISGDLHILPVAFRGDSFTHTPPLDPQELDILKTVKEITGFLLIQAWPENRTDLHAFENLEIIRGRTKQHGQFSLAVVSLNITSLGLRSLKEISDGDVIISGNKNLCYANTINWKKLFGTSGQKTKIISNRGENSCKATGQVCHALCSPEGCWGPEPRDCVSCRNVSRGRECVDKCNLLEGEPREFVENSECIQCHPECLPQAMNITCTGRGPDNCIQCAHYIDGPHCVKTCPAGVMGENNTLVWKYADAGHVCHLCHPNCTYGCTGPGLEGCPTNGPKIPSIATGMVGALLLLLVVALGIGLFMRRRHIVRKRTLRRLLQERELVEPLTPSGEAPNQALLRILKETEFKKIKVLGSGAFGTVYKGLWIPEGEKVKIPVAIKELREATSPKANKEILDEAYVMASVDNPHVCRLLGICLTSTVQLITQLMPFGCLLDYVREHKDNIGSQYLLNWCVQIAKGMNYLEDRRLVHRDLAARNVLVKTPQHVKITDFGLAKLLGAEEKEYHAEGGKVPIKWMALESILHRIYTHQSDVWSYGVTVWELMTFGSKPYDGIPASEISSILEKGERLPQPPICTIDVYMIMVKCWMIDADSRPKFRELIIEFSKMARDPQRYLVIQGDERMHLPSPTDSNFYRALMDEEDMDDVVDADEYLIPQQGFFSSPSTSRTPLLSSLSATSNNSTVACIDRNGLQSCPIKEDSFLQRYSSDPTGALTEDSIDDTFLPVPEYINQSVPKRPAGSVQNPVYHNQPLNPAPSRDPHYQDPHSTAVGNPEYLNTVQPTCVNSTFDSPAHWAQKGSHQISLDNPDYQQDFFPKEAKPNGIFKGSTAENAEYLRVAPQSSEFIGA
T2 sequence (P11802 whole entry): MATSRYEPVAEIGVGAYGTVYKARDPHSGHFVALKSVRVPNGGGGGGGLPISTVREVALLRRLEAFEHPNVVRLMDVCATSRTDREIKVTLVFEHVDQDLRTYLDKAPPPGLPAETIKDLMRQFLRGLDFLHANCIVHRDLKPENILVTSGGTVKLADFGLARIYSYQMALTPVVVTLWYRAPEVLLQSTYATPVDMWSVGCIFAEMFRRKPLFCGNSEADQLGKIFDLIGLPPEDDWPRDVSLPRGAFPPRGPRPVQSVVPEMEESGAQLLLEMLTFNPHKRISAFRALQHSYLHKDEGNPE
T5 sequence (P50750 whole entry): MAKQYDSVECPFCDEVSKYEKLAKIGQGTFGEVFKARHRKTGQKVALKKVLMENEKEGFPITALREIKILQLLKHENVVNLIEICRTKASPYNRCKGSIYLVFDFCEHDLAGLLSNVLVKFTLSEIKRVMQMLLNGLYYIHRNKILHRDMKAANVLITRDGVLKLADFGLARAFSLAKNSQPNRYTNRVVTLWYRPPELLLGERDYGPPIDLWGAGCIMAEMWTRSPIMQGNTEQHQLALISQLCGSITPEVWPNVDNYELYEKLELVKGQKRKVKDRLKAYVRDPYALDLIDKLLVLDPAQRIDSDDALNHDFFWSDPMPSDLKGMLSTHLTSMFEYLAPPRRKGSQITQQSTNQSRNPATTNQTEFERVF
T1 sequence (P09874 whole entry): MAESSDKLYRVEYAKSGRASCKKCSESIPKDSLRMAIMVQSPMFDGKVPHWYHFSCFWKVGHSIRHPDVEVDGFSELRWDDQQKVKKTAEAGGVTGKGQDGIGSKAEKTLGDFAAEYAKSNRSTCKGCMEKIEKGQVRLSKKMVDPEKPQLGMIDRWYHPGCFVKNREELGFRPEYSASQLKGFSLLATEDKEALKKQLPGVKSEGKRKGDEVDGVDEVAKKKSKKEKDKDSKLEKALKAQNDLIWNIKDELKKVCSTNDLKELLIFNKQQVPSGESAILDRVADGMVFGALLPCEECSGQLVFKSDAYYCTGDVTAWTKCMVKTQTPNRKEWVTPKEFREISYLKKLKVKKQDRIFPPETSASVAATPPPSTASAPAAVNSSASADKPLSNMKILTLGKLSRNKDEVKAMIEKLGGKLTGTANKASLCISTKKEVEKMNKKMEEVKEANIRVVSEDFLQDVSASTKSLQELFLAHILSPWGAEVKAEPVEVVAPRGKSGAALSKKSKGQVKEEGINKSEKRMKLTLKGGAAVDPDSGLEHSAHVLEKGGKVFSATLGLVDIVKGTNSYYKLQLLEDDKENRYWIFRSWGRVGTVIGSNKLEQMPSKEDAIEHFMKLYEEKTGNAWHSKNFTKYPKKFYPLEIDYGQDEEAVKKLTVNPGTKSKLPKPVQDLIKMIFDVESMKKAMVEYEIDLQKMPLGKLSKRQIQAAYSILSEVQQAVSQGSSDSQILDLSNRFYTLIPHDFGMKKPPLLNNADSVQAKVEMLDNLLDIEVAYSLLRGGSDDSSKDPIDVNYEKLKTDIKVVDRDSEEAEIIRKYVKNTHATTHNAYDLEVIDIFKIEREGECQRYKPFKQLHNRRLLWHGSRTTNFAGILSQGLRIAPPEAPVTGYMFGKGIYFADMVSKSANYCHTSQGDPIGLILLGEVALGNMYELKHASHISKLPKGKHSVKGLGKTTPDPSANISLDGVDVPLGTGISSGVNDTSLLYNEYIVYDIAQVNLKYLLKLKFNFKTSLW
Sequence of Receptor-type tyrosine-protein kinase FLT3 (P36888 whole entry): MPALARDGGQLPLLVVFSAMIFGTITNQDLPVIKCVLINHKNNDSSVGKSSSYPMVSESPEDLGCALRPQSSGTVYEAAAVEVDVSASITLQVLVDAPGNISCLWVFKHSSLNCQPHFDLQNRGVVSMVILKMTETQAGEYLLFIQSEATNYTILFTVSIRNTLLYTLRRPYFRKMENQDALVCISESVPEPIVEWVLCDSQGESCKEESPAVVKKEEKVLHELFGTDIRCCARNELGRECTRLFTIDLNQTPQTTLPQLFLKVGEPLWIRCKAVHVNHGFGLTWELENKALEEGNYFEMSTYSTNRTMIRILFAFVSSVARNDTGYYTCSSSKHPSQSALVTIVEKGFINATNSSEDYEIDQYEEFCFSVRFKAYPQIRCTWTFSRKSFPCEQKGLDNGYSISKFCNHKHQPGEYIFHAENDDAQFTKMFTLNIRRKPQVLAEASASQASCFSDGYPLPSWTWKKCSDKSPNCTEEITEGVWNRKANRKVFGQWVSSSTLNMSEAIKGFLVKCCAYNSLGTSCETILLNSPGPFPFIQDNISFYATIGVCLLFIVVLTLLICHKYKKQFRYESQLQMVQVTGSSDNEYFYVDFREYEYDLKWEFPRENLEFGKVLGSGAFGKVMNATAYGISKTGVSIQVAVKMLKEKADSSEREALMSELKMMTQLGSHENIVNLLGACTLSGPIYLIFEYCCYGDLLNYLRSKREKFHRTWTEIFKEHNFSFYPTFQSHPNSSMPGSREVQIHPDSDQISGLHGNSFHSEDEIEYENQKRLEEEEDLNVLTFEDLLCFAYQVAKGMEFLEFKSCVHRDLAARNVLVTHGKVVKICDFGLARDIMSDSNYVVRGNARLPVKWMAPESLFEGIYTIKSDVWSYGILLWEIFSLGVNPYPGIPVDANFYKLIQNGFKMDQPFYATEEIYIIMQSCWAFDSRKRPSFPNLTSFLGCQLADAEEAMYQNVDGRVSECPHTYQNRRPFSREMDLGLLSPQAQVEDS
Sequence of Cyclin-dependent kinase 7 (P50613 whole entry): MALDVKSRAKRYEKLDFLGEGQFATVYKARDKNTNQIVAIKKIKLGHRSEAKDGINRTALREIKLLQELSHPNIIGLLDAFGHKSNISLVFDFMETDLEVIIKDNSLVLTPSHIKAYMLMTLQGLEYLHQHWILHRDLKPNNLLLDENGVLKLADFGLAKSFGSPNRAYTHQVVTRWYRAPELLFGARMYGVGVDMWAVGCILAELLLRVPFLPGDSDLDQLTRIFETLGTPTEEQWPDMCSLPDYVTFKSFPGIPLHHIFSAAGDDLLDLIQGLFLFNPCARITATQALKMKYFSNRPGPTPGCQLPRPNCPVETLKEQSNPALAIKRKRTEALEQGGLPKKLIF
Sequence of Histone deacetylase 1 (Q13547 whole entry): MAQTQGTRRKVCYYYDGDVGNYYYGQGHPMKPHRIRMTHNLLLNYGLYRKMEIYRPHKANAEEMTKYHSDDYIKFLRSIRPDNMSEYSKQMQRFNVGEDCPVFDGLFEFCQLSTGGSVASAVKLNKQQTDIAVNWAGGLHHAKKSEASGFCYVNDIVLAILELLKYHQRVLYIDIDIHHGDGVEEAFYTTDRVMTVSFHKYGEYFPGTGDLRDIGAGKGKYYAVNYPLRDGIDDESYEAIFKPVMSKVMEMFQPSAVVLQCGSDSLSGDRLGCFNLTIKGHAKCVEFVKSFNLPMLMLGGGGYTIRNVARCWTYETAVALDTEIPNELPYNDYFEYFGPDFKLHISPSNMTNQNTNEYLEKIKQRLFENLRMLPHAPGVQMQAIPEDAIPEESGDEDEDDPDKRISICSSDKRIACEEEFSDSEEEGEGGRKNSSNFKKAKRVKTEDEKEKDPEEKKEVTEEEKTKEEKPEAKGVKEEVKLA
Sequence of Cyclin-dependent kinase 5 (Q00535 whole entry): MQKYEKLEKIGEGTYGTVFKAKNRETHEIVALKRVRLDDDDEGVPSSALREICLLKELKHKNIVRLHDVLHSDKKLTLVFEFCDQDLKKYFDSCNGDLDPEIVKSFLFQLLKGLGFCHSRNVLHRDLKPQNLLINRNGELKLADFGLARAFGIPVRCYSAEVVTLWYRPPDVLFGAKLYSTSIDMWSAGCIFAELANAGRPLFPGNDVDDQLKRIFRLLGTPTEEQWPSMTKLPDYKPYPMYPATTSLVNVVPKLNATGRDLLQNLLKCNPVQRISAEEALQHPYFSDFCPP

IC50 (OVCAR-5): 0.758 µM
Compound: Cc1nc2c(F)cc(-c3nc(Nc4ccc(N5CCN(C(=O)c6cc(Cc7n[nH]c(=O)c8ccccc78)ccc6F)CC5)cn4)ncc3F)cc2n1C(C)C
IC50 (MDA-MB-231 [4]): 3.61 µM | IC50 (SUM-159-PT): 0.435 µM | IC50 (SK-OV-3 [5]): 0.548 µM

IC50 [8]: 0.007 µM | IC50 [9]: 0.011 µM
Compound: CCN1CCN(c2ccc(Nc3ncc(F)c(-c4cnc5cnn(C(C)C)c5c4)n3)cc2F)CC1

IC50 [10]: 0.019 µM
Compound: CN(C)C/C=C/C(=O)Nc1cccc(C(=O)Nc2cccc(Nc3ncc(Cl)c(-c4c[nH]c5ccccc45)n3)c2)c1

IC50 [8]: 0.01 µM | IC50 [9]: 0.008 µM
Compound: CCN1CCN(c2ccc(Nc3ncc(F)c(-c4cnc5cnn(C(C)C)c5c4)n3)cc2)CC1

inhibition [14]: 51% | inhibition [15]: 52%
Compound: O=C(Nc1ccc2c(ccn2C(=O)c2cccc(F)c2)c1)c1ccnnc1

IC50 (A549 [19]): 3.9 µM | IC50 (MCF7 [20]): 3.7 µM | IC50 (PANC-1): 4.1 µM | IC50 (HT-29): 4.2 µM
Compound: Cc1ccc(NNC(=O)[C@H]2CCCN2C(=O)Nc2ccc(C(F)(F)F)cc2)cc1

IC50 [11]: 0.096 µM | IC50 [7]: 0.015 µM
Compound: Cc1cc(C)cc(NNC(=O)[C@H]2CCCN2C(=O)Nc2ccc(Cl)cc2)c1

IC50 [27]: 0.003 µM
Compound: O=C1Nc2ccccc2/C1=C1/Nc2ccccc2C1=O [INDIRUBIN]

IC50 [28]: 2.8 µM
Compound: C[C@@H](NCCCc1cccc(C(F)(F)F)c1)c1cccc2ccccc12

IC50 (Histone deacetylase 2): 0.093 µM
Compound: Nc1ccc(F)cc1NC(=O)c1ccc(CNC(=O)/C=C/c2cccnc2)cc1

Continued, compound first:

Compound: Cc1cc(=O)n(C2CCCC2)c2nc(NCCC3CCN(C(=O)c4cc(Cc5n[nH]c(=O)c6ccccc56)ccc4F)CC3)ncc12
IC50 [1]: 0.041 µM | IC50 (BT-549): 2.37 µM | IC50 (MDA-MB-231 [2]): 1.96 µM | IC50 (MDA-MB-468): 2.81 µM | IC50 [3]: 0.127 µM

Compound: O=C(Nc1cc(-c2ccc3nc4c([nH]c5ccccc54)c(N4CCOCC4)c3c2)ccn1)C1CC1
inhibition [6]: 5.31% | IC50 [7]: 3.91 µM

Compound: Cc1cc(C)cc(NNC(=O)[C@H]2CCCN2C(=O)Nc2ccc(C(F)(F)F)cc2)c1
IC50 [11]: 0.087 µM | IC50 [7]: 0.023 µM

Compound: O=C(CCCCCCC(=O)Nc1cccc(C(=O)Nc2cccc(Nc3ncc(Cl)c(-c4c[nH]c5ccccc45)n3)c2)c1)NO
IC50 [10]: 0.893 µM | IC50 (Histone deacetylase 1): 0.248 µM

Compound: CCOc1ccc(/C=C2/C(=O)N(c3ccc(Cl)cc3)N=C2C)cc1
IC50 [12]: 0.077 nM | IC50 [11]: 0.00012 µM

Compound: CC[C@H](CO)Nc1nc(NCc2ccccc2N)c2[nH]nc(C(C)C)c2n1
IC50 (Aurora kinase A): 0.4 µM | IC50 [7]: 0.07 µM | IC50 [13]: 0.26 µM

Compound: Cc1n[nH]c2c1C(c1ccc(F)cc1)C(C#N)=C(N)O2 (centres undefined)
IC50 (HeLa): 1.9 µM | IC50 [16]: 2.8 µM | IC50 (SK-OV-3 [17]): 2.03 µM | IC50 (A549 [18]): 1.8 µM

Compound: COC[C@@H](C)N[C@H]1CC[C@H](Nc2cc(-c3cccc(NCC4(C#N)CCOCC4)n3)c(Cl)cn2)CC1
IC50 [21]: 0.00051 µM

Compound: N[C@H]1CCN(c2c3cc(-c4ccnc(NC(=O)C5CC5)c4)ccc3nc3c2[nH]c2ccccc23)C1
IC50 (MCF7 [22]): 1.12 µM | IC50 (A549 [23]): 0.949 µM | IC50 (HCT-116): 0.821 µM | IC50 (HepG2): 1.95 µM | inhibition [6]: 41.1% | IC50 [7]: 0.145 µM

Compound: CCOc1ccc(C2C(C#N)=C(N)OC3C2C(C)=NN3c2ccc(Cl)cc2)cc1 (centres undefined)
IC50 [12]: 1.26 nM | IC50 [11]: 0.00021 µM

Compound: O=C(c1ccc2ccccc2c1)c1cn(-c2ccccc2)nc1C1=Nn2c(S)nnc2SC1
IC50 [24]: 0.0896 µM | IC50 [25]: 0.165 µM

Compound: Cc1nnc2n1N=C(c1ccccc1OCC(=O)NCCCNC(=O)COc1ccccc1C1=Nn3c(C)nnc3SC1)CS2
IC50 [26]: 0.00137 µM

Compound: CCCCCCCNc1nc(NCc2ccccc2)c2n[nH]c(C(C)C)c2n1
GI50 (MCF7 [29]): 21.4 µM | GI50 (K562): 17 µM | IC50 [7]: > 1000 µM

Compound: O=C(CC(=O)Nc1cccc(C(=O)Nc2cccc(Nc3ncc(Cl)c(-c4c[nH]c5ccccc45)n3)c2)c1)NO
IC50 (MCF7 [30]): 18.1 µM | IC50 (MDA-MB-231 [31]): 23 µM

Compound: O=C(c1ccc2ccccc2c1)c1cn(-c2ccccc2)nc1C1=Nn2cnnc2SC1
IC50 [25]: 0.0647 µM

Compound: O=C(Nc1ccc2[nH]ncc2c1)c1cccc(Cl)c1Cl
IC50 [32]: > 10 µM

— ChEMBL document CHEMBL6134823, “Combination therapy and dual-target inhibitors based on cyclin-dependent kinases (CDKs): Emerging strategies for cancer therapy” (Eur J Med Chem, 2025)
